Reference: US20260060961A1, “SUBSTITUTED HETEROCYCLES AS RAS INHIBITORS” (Jazz Pharmaceuticals Ireland Limited, priority 2022, published 2026)

These compounds were tested against Recombinant human KRAS protein containing the G12C amino acid substitution (Homo sapiens (Human), UniProt P01116, G12C) (assay: HTRF nucleotide exchange assay, KRAS G12C). Conditions: 180 minute incubation with compound at room temperature; at least two independent replicates; read-out: KRAS G12C HTRF NEA IC50.
Type: biochemical
Protocol: The capacity of compounds to bind KRAS G12C and KRAS wildtype was quantified using a HTRF nucleotide exchange assay. Recombinant human KRAS protein (5 nM; aa1-188 KRAS WT or KRAS containing the G12C amino acid substitution, an N-terminal 6×His-tag and leader sequence), and 2 nM Europium-labeled anti-6×His antibody were mixed in assay buffer (10 mM HEPES pH7.3, 75 mM NaCl, 5 mM MgCl2, 0.05% BSA, 0.0025% NP-40 and 100 mM KF) with various concentrations of compound in a 384-well plate and a volume of 5 μL. After a 180 minute incubation at room temperature, 5 μl of 200 nM EDA-GTP-DY647P1 diluted in assay buffer was added to the plate. Following 30-minute incubation at room temperature, time-resolved fluorescence was measured on a PerkinElmer Envision plate reader. DMSO (0.3%) and unlabeled GDP (1 μM) or equivalent tool compound were used to generate the Max and Min assay signals, respectively. Data was analysed using a four-parameter logistic model to calculate IC50 values, with at least two independent replicates were performed for each compound.

Recombinant human KRAS protein containing the G12C amino acid substitution, sequence (P01116 other isoform, or with tags, fused parts or gaps G12C): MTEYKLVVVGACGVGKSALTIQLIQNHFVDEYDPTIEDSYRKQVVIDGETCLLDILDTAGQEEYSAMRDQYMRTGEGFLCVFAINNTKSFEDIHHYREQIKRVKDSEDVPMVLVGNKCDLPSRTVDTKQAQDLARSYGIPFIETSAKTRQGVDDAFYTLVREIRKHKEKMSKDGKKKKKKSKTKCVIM

| SMILES | IC50 |
| --- | --- |
| C=CC(=O)N1CC2(CC(c3nc(-c4ccc5nn(C)cc5c4)c(-c4cc(O)cc5ccccc45)n3C)C2)C1 [Example 28, 1-[6-[5-(3-hydroxy-1-naphthyl)-1-methyl-4-(2-methylindazol-5-yl)imidazol-2-yl]-2-azaspiro[3.3]heptan-2-yl]prop-2-en-1-one] | ≤ 1000 nM |
| C=CC(=O)N1CC2(CC(c3nc(-c4ccc(CN5CCOCC5)cc4)c(-c4cc(O)cc5ccccc45)n3C)C2)C1 [Example 30, 1-[6-[5-(3-hydroxy-1-naphthyl)-1-methyl-4-[4-(morpholinomethyl)phenyl]imidazol-2-yl]-2-azaspiro[3.3]heptan-2-yl]prop-2-en-1-one] | ≤ 1000 nM |
| C=CC(=O)N1CC2(CC(c3nc(-c4ccc(CN5CCN(C)CC5)cc4)c(-c4cc(O)cc5ccccc45)n3C)C2)C1 [Example 31, 1-[6-[5-(3-hydroxy-1-naphthyl)-1-methyl-4-[4-[(4-methylpiperazin-1-yl)methyl]phenyl]imidazol-2-yl]-2-azaspiro[3.3]heptan-2-yl]prop-2-en-1-one] | ≤ 1000 nM |
| C=CC(=O)N1CC2(CC(c3nc(-c4ccc5c(cnn5C)c4)c(-c4cc(O)cc5ccccc45)n3CC)C2)C1 [Example 32, 1-[6-[1-ethyl-5-(3-hydroxy-1-naphthyl)-4-(1-methylindazol-5-yl)imidazol-2-yl]-2-azaspiro[3.3]heptan-2-yl]prop-2-en-1-one] | ≤ 1000 nM |
| C=CC(=O)N1CC2(CC(c3nc(-c4ccc(N5CCOCC5)cc4)c(-c4cc(O)cc5ccccc45)n3CC)C2)C1 [Example 33, 1-[6-[1-ethyl-5-(3-hydroxy-1-naphthyl)-4-(4-morpholinophenyl)imidazol-2-yl]-2-azaspiro[3.3]heptan-2-yl]prop-2-en-1-one] | ≤ 1000 nM |
| C=CC(=O)N1CC2(CC(c3nc(-c4ccc5c(cnn5C)c4)c(-c4cc(O)cc5cccc(Cl)c45)n3C)C2)C1 [Example 35, 1-[6-[5-(8-chloro-3-hydroxy-1-naphthyl)-1-methyl-4-(1-methylindazol-5-yl)imidazol-2-yl]-2-azaspiro[3.3]heptan-2-yl]prop-2-en-1-one] | ≤ 1000 nM |
| C=CC(=O)N1CC2(CC(c3nc(-c4ccc5c(cnn5C)c4)c(-c4cccc5sc(N)c(C#N)c45)n3C)C2)C1 [Example 36, 2-amino-4-[3-methyl-5-(1-methylindazol-5-yl)-2-(2-prop-2-enoyl-2-azaspiro[3.3]heptan-6-yl)imidazol-4-yl]benzothiophene-3-carbonitrile] | 1000 to 10000 nM |
| C=CC(=O)N1CC2(CC(c3nc(-c4ccc(C(=O)NCCN5CCOCC5)cc4)c(-c4cc(O)cc5ccccc45)n3C)C2)C1 [Example 37, 4-[5-(3-hydroxy-1-naphthyl)-1-methyl-2-(2-prop-2-enoyl-2-azaspiro[3.3]heptan-6-yl)imidazol-4-yl]-N-(2-morpholinoethyl)benzamide] | ≤ 1000 nM |
| C=CC(=O)N1CC2(CC(c3nc(-c4ccc5c(cnn5C)c4)c(-c4c(C)c(C)cc5[nH]ncc45)n3C)C2)C1 [Example 38, 1-[6-[5-(5,6-dimethyl-1H-indazol-4-yl)-1-methyl-4-(1-methylindazol-5-yl)imidazol-2-yl]-2-azaspiro[3.3]heptan-2-yl]prop-2-en-1-one] | ≤ 1000 nM |
| C=CC(=O)N1CC2(CC(c3nc(-c4ccc5c(cnn5C)c4)c(-c4cc(O)ccc4C(F)(F)F)n3C)C2)C1 [Example 39, 1-[6-[5-[5-hydroxy-2-(trifluoromethyl)phenyl]-1-methyl-4-(1-methylindazol-5-yl)imidazol-2-yl]-2-azaspiro[3.3]heptan-2-yl]prop-2-en-1-one] | ≤ 1000 nM |
| C=CC(=O)N1CC2(CC(c3nc(-c4ccc5c(cnn5C)c4)c(-c4cc(C#N)cc5[nH]ncc45)n3C)C2)C1 [Example 40, 4-[3-methyl-5-(1-methylindazol-5-yl)-2-(2-prop-2-enoyl-2-azaspiro[3.3]heptan-6-yl)imidazol-4-yl]-1H-indazole-6-carbonitrile] | 1000 to 10000 nM |
| C=CC(=O)N1CC2(CC(c3nc(-c4ccc5c(cnn5C)c4)c(-c4cc(Cl)cc5[nH]ncc45)n3C)C2)C1 [Example 41, 1-[6-[5-(6-chloro-1H-indazol-4-yl)-1-methyl-4-(1-methylindazol-5-yl)imidazol-2-yl]-2-azaspiro[3.3]heptan-2-yl]prop-2-en-1-one] | ≤ 1000 nM |
